Laboratory results as given in patent US20170269060A1, “Assays and Compounds to Treat Kidney Diseases” (Rush University Medical Center, priority 2014, published 2017).

Key:
SD rats = experiment: PAN-induced nephropathy in rats; assay type: in vivo, rat; settings: PAN 150 mg/kg i.v., pyrintegrin 10 mg/kg daily for 14 days
Method: The induction of nephropathy in male wild type SD rats (n=6 per group) by PAN injection was performed as described. (Reiser et al., J Clin Invest, 2004; Wei et al., Nature Medicine, 2008; Nakamura et al., Lab Invest, 1991.) Briefly, 5 week old male rats were intravenously injected with PAN (150 mg/kg, in water) and treatment with vehicle or pyrintegrin was started on the same day. Animals in the vehicle group were administered saline-based vehicle solution (3.3% DMSO and 5% Cremaphor EL) intraperitoneally daily for 14 days. Animals in the treatment group were treated with pyrintegrin (10 mg/kg, 3.3% DMSO and 5% Cremaphor EL) in the saline based solution daily for 14 days. Spot urine was collected from animals for measurement of albuminuria as mg albumin per mg creatinine. (Faul et al., Nat Med, 2008) Results are expressed as mean±SEM.
Low-dose LPS decreases β1 integrin activation in podocytes and causes podocyte damage and proteinuria in mice. (Yu et al., N Engl J Med, 2013) Here, we used this model to test whether pyrintegrin, by preserving active β1 integrin in podocytes, is able to suppress podocyte FP effacement and the development of proteinuria in live animals. […] Given that pyrintegrin protected podocytes from PAN-induced damage in vitro, we also tested the efficacy of pyrintegrin in a PAN injury model.

β1 integrin = target: T1, β1 integrin (Mus musculus, UniProt P09055); experiment: β1 integrin and active β1 integrin levels (antibody 9EG7) in PAN-treated murine podocytes; assay type: cell-based
T1 construct: we quantified the level of β1 in treated cells; endogenous in cells; host or cells: conditionally immortalized murine podocytes (from mouse line H-2Kb-tsA58)
Source text: FIG. 9A-9E. An An β1-integrin agonist pyrintegrin (pyr) protects podocytes from damage. (A) The published chemical structure of pyr. (Xu et al. PNAS, 2010.) (B-D) Pyr protects podocytes from PAN-induced loss of F-actin fibers and focal adhesions and enhances active β1-integrin levels. (B) Graphs showing the effect of pyr on the number of F-actin fibers per cell and the number of vinculin spots per cell under each treatment condition. Data shown are means 6 SEMs per cell from three replicate wells (n=500-1000 cells per well). **P, 0.01; ***P, 0.001; ****P, 0.001. (C) Representative fluorescence images of murine podocytes after various treatments and after staining with phalloidin and antiactive β1 antibody. Two-color costained images show cells stained with phalloidin (red) and anti-active β1 antibody 9EG7 (green). Images were acquired using the Opera HCS System. […] Data shown are means±SEMs per cell from four to five replicate wells (n=500-1000 cells per well). Scale bar, 50 μm. *P, 0.01; **P, 0.001. (D) Representative fluorescence images of human podocytes after various treatments as shown. Images show cells stained with phalloidin (red) and anti-active β1-integrin antibody 12G10 (green). Images were acquired using the Opera HCS System. […] Data shown are medians±SEMs per cell from four to five replicate wells (n=500-1000 cells per well). Scale bar, 50 μm. **P, 0.01; ***P, 0.001. (E) Pyr reduces injury-mediated increase in podocyte migration in a scratch wound-healing assay. Representative images (left panel) and a bar graph (right panel) showing confocal microscopy-based quantitation of the number of migrating podocytes in a scratch wound-healing assay Lines represent the wound margins at the beginning of the experiment (0 hours). The data presented in the graph are plotted as means±SEMs (n≧15). C, control. Scale bar, 50 μm. **P<0.01; ****P<0.001.
FIG. 16. […] The cellular damage was assessed after staining the cells with phalloidin, anti-paxillin and anti-integrin β1 antibodies and quantifying various cellular phenotypes using the HCS system. […]

mouse podocytes = experiment: Scratch, wound-healing assay (podocyte migration); assay type: cell-based; settings: PAN or LPS treatment, cotreatment, 48 hours
Method: The effect of identified novel compounds on podocyte migration was assessed using a classic scratch, wound-healing assay as described. (Mathieson, Nat Rev Nephrol, 2012.) Differentiated mouse podocytes per well were seeded overnight in type-I collagen coated wells of a 24 well plate. Each well was subsequently scratched using a sterile 200 μI pipette tip, washed and placed into fresh culture medium. Cells in wells were also treated with PAN, LPS, pyr or a combination, as described in the text. After 48 h, cells were fixed with 2% paraformaldehyde and stained with DAPI. Images of cells near scratched surfaces and their DAPI-stained nuclei were acquired using a 10× objective using a Zeiss Axio Observer D1 microscope (Carl Zeiss Group, Hartford, Conn.) and analyzed using ImageJ software (NIH). Images using transmitted light were also acquired at the beginning and the end of the experiment and were used to align images of pre- and post-treated cells for counting cells that had migrated into similar sized fields. The data shown represent the mean±SEM of three independent experiments.
Next, we assessed the efficacy of this small molecule in a functional assay. In vitro, PAN- or LPS-mediated injury promotes directional migration and wound closure by podocytes in a scratch wound-healing assay.

T1 sequence (P09055 21-798): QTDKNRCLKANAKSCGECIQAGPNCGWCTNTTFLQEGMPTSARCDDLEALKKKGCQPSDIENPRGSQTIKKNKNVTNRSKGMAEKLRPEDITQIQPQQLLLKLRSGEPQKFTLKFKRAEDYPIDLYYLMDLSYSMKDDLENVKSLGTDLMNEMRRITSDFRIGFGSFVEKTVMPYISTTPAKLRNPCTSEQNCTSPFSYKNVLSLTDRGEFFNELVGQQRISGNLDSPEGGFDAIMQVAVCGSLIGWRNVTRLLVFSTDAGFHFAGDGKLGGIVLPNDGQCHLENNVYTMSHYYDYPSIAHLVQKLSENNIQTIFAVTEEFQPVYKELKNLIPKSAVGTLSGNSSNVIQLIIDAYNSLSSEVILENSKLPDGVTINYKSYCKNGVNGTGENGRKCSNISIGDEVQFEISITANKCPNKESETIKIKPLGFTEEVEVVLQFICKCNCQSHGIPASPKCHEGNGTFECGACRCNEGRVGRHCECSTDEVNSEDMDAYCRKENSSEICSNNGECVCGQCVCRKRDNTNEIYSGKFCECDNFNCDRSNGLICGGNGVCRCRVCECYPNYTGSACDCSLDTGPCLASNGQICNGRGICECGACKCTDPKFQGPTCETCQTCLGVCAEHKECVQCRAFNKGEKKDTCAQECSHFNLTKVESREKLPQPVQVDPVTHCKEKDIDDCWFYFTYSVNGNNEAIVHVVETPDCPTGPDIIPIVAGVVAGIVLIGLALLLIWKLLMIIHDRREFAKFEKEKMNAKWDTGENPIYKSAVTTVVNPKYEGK
T1 sequence (Q62470 33-1053 partner): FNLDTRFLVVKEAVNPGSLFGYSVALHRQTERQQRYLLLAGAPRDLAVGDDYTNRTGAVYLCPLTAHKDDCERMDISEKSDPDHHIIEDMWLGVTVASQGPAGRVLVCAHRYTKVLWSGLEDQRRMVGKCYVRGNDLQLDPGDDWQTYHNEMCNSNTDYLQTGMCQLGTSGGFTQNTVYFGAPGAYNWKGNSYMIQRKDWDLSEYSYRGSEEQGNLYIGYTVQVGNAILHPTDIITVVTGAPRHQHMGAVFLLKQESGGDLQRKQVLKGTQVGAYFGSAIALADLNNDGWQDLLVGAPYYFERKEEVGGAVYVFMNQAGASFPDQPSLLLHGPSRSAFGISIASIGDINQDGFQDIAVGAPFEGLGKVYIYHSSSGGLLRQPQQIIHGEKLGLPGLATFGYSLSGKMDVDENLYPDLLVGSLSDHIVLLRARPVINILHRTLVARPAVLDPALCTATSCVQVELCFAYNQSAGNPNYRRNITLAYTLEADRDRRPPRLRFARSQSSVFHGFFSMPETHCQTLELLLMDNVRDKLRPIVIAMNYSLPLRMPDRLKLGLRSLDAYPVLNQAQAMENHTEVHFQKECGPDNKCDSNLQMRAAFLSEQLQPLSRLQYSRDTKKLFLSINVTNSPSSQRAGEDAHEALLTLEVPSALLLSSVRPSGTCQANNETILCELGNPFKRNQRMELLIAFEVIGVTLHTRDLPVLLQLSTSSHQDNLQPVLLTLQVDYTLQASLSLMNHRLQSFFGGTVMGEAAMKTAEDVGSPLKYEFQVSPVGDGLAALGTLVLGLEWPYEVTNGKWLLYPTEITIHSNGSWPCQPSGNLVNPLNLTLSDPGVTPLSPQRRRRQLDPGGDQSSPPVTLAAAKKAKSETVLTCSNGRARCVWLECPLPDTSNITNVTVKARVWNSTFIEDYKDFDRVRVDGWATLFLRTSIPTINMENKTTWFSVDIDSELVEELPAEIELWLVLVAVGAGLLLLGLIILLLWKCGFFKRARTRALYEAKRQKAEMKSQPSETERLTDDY

O=S(=O)(NCC1CC1)c1ccc(Nc2nccc(N3CCCc4cc(O)ccc43)n2)cc1 [Pyrintegrin]
albuminuria caused by PAN-induced nephropathy (SD rats): significantly reduced albuminuria
β1 levels in podocytes (β1 integrin; PAN 30 μg/mL, pyr 1 μM cotreatment, 48 h (FIG. 16)): preserved
active β1 levels in podocytes (antibody 9EG7) (β1 integrin; PAN cotreatment): significant loss of active β1 levels in podocytes but not on treatment with pyrintegrin
active β1 levels in healthy cells (β1 integrin; healthy cells, no PAN): significant increase in active β1 levels
podocyte motility and wound closure (mouse podocytes): significantly reduced podocyte motility and wound closure
